Laboratory results: PubChem BioAssay AID270 (DTP/NCI, 2004)
Inconclusive results are not listed. Where a SMILES comes first, the peptide text is derived from it. [ ]: non-standard residue; d: D form. The star is where a group is joined. ξ: configuration not given here. ξAsp(βξ-Me) = CC(C(=O)O)C(N)C(=O)O; X4 = CC(N*)C1NC(=O)C2CCCCN2C1=O; ξAbu(3ξ-NH2) = CC(N)C(N)C(=O)O; X3 = CCC(C)CCC/C=C/CC(=O)*

Tested on: BDF1 mice, s.c. Lewis lung carcinoma, T/C %
Assay: NCI In Vivo Anticancer Drug Screen. Data for tumor model Lewis Lung Carcinoma (subcutaneous) in B6D2F1 (BDF1) mice
Summary of the method: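 Readout: survival or tumor size, expressed as treated (T) over vehicle control (C). Transplantable tumor implanted in mice; compound given to the treated group.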

[1] = endpoint: median survival time, dose: 6.25 mg/kg/injection, schedule: Q01DX009 (ip), vehicle: saline, higher = longer survival
[2] = endpoint: median survival time, dose: 12.5 mg/kg/injection, schedule: Q01DX009 (ip), vehicle: saline, higher = longer survival

In the case of `O=c1cc(-c2ccccc2)oc2cccc(O)c12`, the T/C (endpoint: mean tumor weight, dose: 50.0 mg/kg/injection, schedule: Q01DX010 (ip), vehicle: saline, higher = larger tumour) is reported as 73 % of control, the T/C (endpoint: mean tumor weight, dose: 100.0 mg/kg/injection, schedule: Q01DX010 (ip), vehicle: saline, higher = larger tumour) is reported as 70 % of control and the T/C (endpoint: mean tumor weight, dose: 200.0 mg/kg/injection, schedule: Q01DX010 (ip), vehicle: saline, higher = larger tumour) is reported as 82 % of control. For the same compound, the T/C (endpoint: mean tumor weight, dose: 400.0 mg/kg/injection, schedule: Q01DX010 (ip), vehicle: saline, higher = larger tumour) was 67 % of control.

With `CCCCCC(CN(C)C)C(O)/C=C/c1ccccc1Cl` (centres undefined) the T/C (endpoint: median survival time, dose: 3.12 mg/kg/injection, schedule: Q01DX009 (ip), vehicle: saline, higher = longer survival) was 99 % of control, the T/C [1] was 95 % of control and the T/C [2] was 92 % of control. For the same compound, the T/C (endpoint: median survival time, dose: 25.0 mg/kg/injection, schedule: Q01DX009 (ip), vehicle: saline, higher = longer survival) was 99 % of control and the T/C (endpoint: median survival time, dose: 50.0 mg/kg/injection, schedule: Q01DX009 (ip), vehicle: saline, higher = longer survival) was 108 % of control.

For `CCC(C)CCC/C=C/CC(=O)NC(CC(=O)O)C(=O)NC(C(=O)NC(CC(=O)O)C(=O)NCC(=O)NC(CC(=O)O)C(=O)NCC(=O)NC(C(=O)NC(C(=O)N1CCCC1C(=O)NC(C)C1NC(=O)C2CCCCN2C1=O)C(C)C)C(C)N)C(C)C(=O)O` (stereo not drawn) (X3-D[ξAsp(βξ-Me)]DGDG[ξAbu(3ξ-NH2)]VP-X4; configuration not given here), the T/C (endpoint: median survival time, dose: 100.0 mg/kg/injection, schedule: Q01DX009 (ip), vehicle: saline + alcohol, higher = longer survival) was 124 % of control and the T/C (endpoint: median survival time, dose: 200.0 mg/kg/injection, schedule: Q01DX009 (ip), vehicle: saline + alcohol, higher = longer survival) was 99 % of control.

For `COC(=O)c1nc(-c2ccc3c(n2)C(=O)C(N)=C(OC)C3=O)c(N)c(-c2ccc(OC)c(OC)c2O)c1C`, the T/C (endpoint: mean tumor weight, dose: 0.25 mg/kg/injection, schedule: Q01DX011 (ip), vehicle: other, higher = larger tumour) was 65 % of control, the T/C (endpoint: mean tumor weight, dose: 0.5 mg/kg/injection, schedule: Q01DX011 (ip), vehicle: other, higher = larger tumour) was 70 % of control and the T/C (endpoint: mean tumor weight, dose: 1.0 mg/kg/injection, schedule: Q01DX011 (ip), vehicle: other, higher = larger tumour) was 45 % of control.

`Nc1ccccc1Br` was tested, and the T/C (endpoint: mean tumor weight, dose: 222.0 mg/kg/injection, schedule: Q01DX011 (ip), vehicle: other, higher = larger tumour) was 114 % of control and the T/C (endpoint: mean tumor weight, dose: 333.0 mg/kg/injection, schedule: Q01DX011 (ip), vehicle: other, higher = larger tumour) was 102 % of control.

With `CSCS(=O)C[C@H](CO)NC(=O)/C=C/c1c(C)[nH]c(=O)[nH]c1=O` (some centres undefined) the T/C (endpoint: median survival time, dose: 0.08 mg/kg/injection, schedule: Q01DX009 (ip), vehicle: water, higher = longer survival) was 94 % of control, the T/C (endpoint: median survival time, dose: 0.15 mg/kg/injection, schedule: Q01DX009 (ip), vehicle: water, higher = longer survival) was 109 % of control and the T/C (endpoint: median survival time, dose: 0.3 mg/kg/injection, schedule: Q01DX009 (ip), vehicle: water, higher = longer survival) was 97 % of control.

`CSc1ncc(Br)c(Sc2nc(N)nc3nc[nH]c23)n1` was tested, and the T/C (endpoint: mean tumor weight, dose: 5.0 mg/kg/injection, schedule: Q01DX011 (ip), vehicle: other, higher = larger tumour) was 57 % of control, the T/C (endpoint: mean tumor weight, dose: 10.0 mg/kg/injection, schedule: Q01DX011 (ip), vehicle: other, higher = larger tumour) was 100 % of control and the T/C (endpoint: mean tumor weight, dose: 20.0 mg/kg/injection, schedule: Q01DX011 (ip), vehicle: other, higher = larger tumour) was 65 % of control.

With `Cc1cc(C)c(NC(=O)N(CCCl)N=O)cc1C` the T/C (endpoint: mean tumor weight, dose: 25.0 mg/kg/injection, schedule: Q01DX001 (ip), vehicle: carboxymethylcellulose (CMC), higher = larger tumour) was 80 % of control, the T/C (endpoint: mean tumor weight, dose: 50.0 mg/kg/injection, schedule: Q01DX001 (ip), vehicle: carboxymethylcellulose (CMC), higher = larger tumour) was 82 % of control and the T/C (endpoint: median survival time, dose: 12.5 mg/kg/injection, schedule: Q01DX009 (ip), vehicle: other, higher = longer survival) was 98 % of control. For the same compound, the T/C (endpoint: median survival time, dose: 25.0 mg/kg/injection, schedule: Q01DX009 (ip), vehicle: other, higher = longer survival) was 98 % of control and the T/C (endpoint: median survival time, dose: 50.0 mg/kg/injection, schedule: Q01DX009 (ip), vehicle: other, higher = longer survival) was 87 % of control.

With `COc1ccc(CC2C(=O)NC(C)C(=O)N(C)C3Cc4ccc(cc4)Oc4cc(ccc4O)CC(C(=O)NC(C)C(=O)NC(C)C(=O)N2C)N(C)C3=O)cc1` (centres undefined) the T/C (endpoint: median survival time, dose: 1.0 mg/kg/injection, schedule: Q01DX009 (ip), vehicle: saline, higher = longer survival) was 103 % of control and the T/C (endpoint: median survival time, dose: 2.0 mg/kg/injection, schedule: Q01DX009 (ip), vehicle: saline, higher = longer survival) was 111 % of control.

For `C[C@]12CCC(=O)C=C1CC[C@@H]1[C@@H]2C(=O)C[C@]2(C)C3=CC(=O)O[C@H]3C[C@@H]12`, the T/C (endpoint: median survival time, dose: 3.13 mg/kg/injection, schedule: Q01DX009 (ip), vehicle: saline, higher = longer survival) was 106 % of control, the T/C [1] was 109 % of control and the T/C (endpoint: median survival time, dose: 12.5 mg/kg/injection, schedule: Q01DX009 (ip), vehicle: saline with Tween-80, higher = longer survival) was 116 % of control. For the same compound, the T/C [2] was 100 % of control and the T/C (endpoint: median survival time, dose: 25.0 mg/kg/injection, schedule: Q01DX009 (ip), vehicle: saline with Tween-80, higher = longer survival) was 91 % of control.
